Test results: patent US10221163B2 (priority 2015, dated 2019)
Like-named read-outs stand apart in the source and are kept apart here.

Tests used:
[1] = test system: Pseudomonas aeruginosa efflux+ (MB9798), IMP-1; type: cell-based; conditions: concentration restoring susceptibility to imipenem at 2 μg/mL in the presence of a class A, C, D serine β-lactamase inhibitor closely related to relebactam
Method in brief: (§1)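 P. aeruginosa PAO1-derived IMP-1 strains, efflux+ MB9798 and efflux− MB9799, tested by standard microbroth MIC with imipenem and/or ceftazidime fixed, usually at CLSI breakpoint, plus fixed class A/C β-lactamase inhibitor against AmpC. Inhibitor titrated; concentration restoring susceptibility recorded; MB9798/MB9799 fold difference indicates efflux.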

[2] = target: NDM-1 (Klebsiella pneumoniae, UniProt C7C422); assay: biochemical; type: biochemical; conditions: fluorescence assay, CCF2-FA substrate, 1 pM enzyme, 2 hours at 25° C.; read-out: NDM-1 IC50
Method in brief: (§2)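 Two-hour, 25° C incubation of enzyme with inhibitor and CCF2-FA (7-hydroxycoumarin–cephalosporin–fluorescein). Fluorescence read-out; IC50 via 4-parameter fit.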

[3] = target: IMP-1 (Serratia marcescens, UniProt P52699); assay: biochemical; type: biochemical; conditions: fluorescence assay, CCF2-FA substrate, 2 pM enzyme, 2 hours at 25° C.; read-out: IMP-1 IC50
Method in brief: as §2

[4] = test system: Pseudomonas aeruginosa MB9798 vs MB9799; conditions: ratio MITC95 PA_9798/MITC95 PA_9799
Method in brief: as §1

[5] = target: VIM-1 (Pseudomonas aeruginosa (strain ATCC 15692 / DSM 22644 / CIP 104116 / JCM 14847 / LMG 12228 / 1C / PRS 101 / PAO1), UniProt A0A0F7KYQ8); assay: biochemical; conditions: CCF2-FA substrate, 30 pM enzyme, 2 hours at 25° C.
Method in brief: as §2

[6] = test system: Escherichia coli expressing NDM-1 (CLB30005, CLB30016); type: cell-based; conditions: with imipenem 1 μg/ml; 95% inhibition of bacterial growth
Method in brief: (§3)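 Clinical isolates (E. coli NDM-1, S. marcescens IMP-1, K. pneumoniae VIM-1) were diluted 1:100 from saline suspension into 1.1×CAMHB and exposed to test compound with imipenem at 1 μg/ml. Plates were incubated at 35° C for 22 hours to 24 hours, and growth was read by absorbance.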

[7] = test system: Klebsiella pneumoniae expressing VIM-1 (IHMA599644); type: cell-based; conditions: with imipenem 1 μg/ml; 95% inhibition of bacterial growth
Method in brief: as §3

[8] = test system: Serratia marcescens expressing IMP-1 (CL5741); type: cell-based; conditions: with imipenem 1 μg/ml; 95% inhibition of bacterial growth
Method in brief: as §3

[9] = test system: Pseudomonas aeruginosa efflux− (MB9799), IMP-1; type: cell-based; conditions: concentration restoring susceptibility to imipenem at 2 μg/mL in the presence of a class A, C, D serine β-lactamase inhibitor closely related to relebactam
Method in brief: as §1

[10] = fluorescence assay, read-out: VIM-1 IC50

IMP-1, sequence (P52699 whole entry, looked up, species assumed): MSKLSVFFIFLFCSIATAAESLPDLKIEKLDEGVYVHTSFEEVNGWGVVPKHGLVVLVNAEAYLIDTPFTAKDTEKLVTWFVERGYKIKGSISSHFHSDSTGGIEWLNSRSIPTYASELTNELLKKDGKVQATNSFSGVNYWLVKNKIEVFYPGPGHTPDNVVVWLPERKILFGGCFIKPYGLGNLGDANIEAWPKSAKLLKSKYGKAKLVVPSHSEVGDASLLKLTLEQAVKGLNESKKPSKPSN
NDM-1, sequence (C7C422 whole entry, looked up, species assumed): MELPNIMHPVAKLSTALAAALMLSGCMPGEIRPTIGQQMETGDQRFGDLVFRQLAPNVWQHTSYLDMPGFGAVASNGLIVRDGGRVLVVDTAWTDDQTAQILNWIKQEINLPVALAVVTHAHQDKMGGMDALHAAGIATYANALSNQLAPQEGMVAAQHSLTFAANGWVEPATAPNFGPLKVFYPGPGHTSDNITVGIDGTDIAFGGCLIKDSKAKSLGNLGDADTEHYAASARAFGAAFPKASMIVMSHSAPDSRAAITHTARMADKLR

SMILES	P. aeruginosa expressing IMP-1, efflux + (MB9798) MITC95 [1] [µM]	IC50 [2] [nM]	IC50 [3] [nM]	Efflux ratio [4]	IC50 [5, 10] [nM]	Escherichia coli expressing NDM-1 (CLB30016) MITC95 [6] [µM]	Klebsiella pneumoniae expressing VIM-1 (IHMA599644) MITC95 [7] [µM]	Serratia marcescens expressing IMP-1 (CL5741) MITC95 [8] [µM]	P. aeruginosa expressing IMP-1, efflux − (MB9799) MITC95 [9] [µM]	IC50 ([5]; VIM-1 IC50, fluorescence assay) [nM]
C[C@H]1NC(=O)O[C@H]1c1ccc(-c2ccc(S(=O)(=O)N[C@@H]3CCNC3)c(S(N)(=O)=O)c2-c2nnn[nH]2)cc1 [Example 141, 4′-((4R,5S)-4-methyl-2-oxooxazolidin-5-yl)-N4-((R)-pyrrolidin-3-yl)-2-(1H-tetrazol-5-yl)-[1,1′-biphenyl]-3,4-disulfonamide]	1.563	0.0186	0.0408	1.00	0.0623	3.125	6.25	6.25	1.563	–
Nc1nc2c(-c3ccc(S(=O)(=O)N4CCNCC4)c(S(N)(=O)=O)c3-c3nn[nH]n3)cccc2s1 [Example 142, 3-(2-Aminobenzo[d]thiazol-4-yl)-6-(piperazin-1-ylsulfonyl)-2-(2H-tetrazol-5-yl)benzenesulfonamide]	1.563	0.185	0.636	1.33	0.558	3.906	3.125	1.563	1.172	–
Nc1nc2c(-c3ccc(S(N)(=O)=O)c(S(N)(=O)=O)c3-c3nn[nH]n3)cccc2s1 [Example 143, 4-(2-aminobenzo[d]thiazol-4-yl)-3-(2H-tetrazol-5-yl)benzene-1,2-disulfonamide]	0.7813	0.0849	0.266	0.50	0.22	3.125	12.5	1.563	1.563	–
Nc1nc2c(-c3ccc(S(=O)(=O)NCCO)c(S(N)(=O)=O)c3-c3nn[nH]n3)cccc2s1 [Example 144, 4-(2-aminobenzo[d]thiazol-4-yl)-N1-(2-hydroxyethyl)-3-(2H-tetrazol-5-yl)benzene-1,2-disulfonamide]	3.125	0.0898	0.288	1.00	0.162	12.5	12.5	3.125	3.125	–
NCCNS(=O)(=O)c1ccc(-c2cccc3sc(N)nc23)c(-c2nn[nH]n2)c1S(N)(=O)=O [Example 145, 4-(2-aminobenzo[d]thiazol-4-yl)-N1-(2-aminoethyl)-3-(2H-tetrazol-5-yl)benzene-1,2-disulfonamide]	0.3906	0.0343	0.221	0.50	0.182	0.7813	1.563	0.7813	0.7813	–
Nc1nc2c(-c3ccc(S(=O)(=O)NC4CNC4)c(S(N)(=O)=O)c3-c3nn[nH]n3)cccc2s1 [Example 146, 4-(2-aminobenzo[d]thiazol-4-yl)-N1-(azetidin-3-yl)-3-(2H-tetrazol-5-yl)benzene-1,2-disulfonamide]	0.3906	0.0372	0.356	0.50	0.224	3.125	1.563	0.7813	0.7813	–
Nc1nc2c(-c3ccc(S(=O)(=O)N4CC(N)C4)c(S(N)(=O)=O)c3-c3nn[nH]n3)cccc2s1 [Example 147, 6-((3-aminoazetidin-1-yl)sulfonyl)-3-(2-aminobenzo[d]thiazol-4-yl)-2-(2H-tetrazol-5-yl)benzenesulfonamide]	3.125	0.55	0.494	1.00	0.559	25	12.5	6.25	3.125	–
Nc1nc2c(-c3ccc(S(=O)(=O)N4CCC(N)CC4)c(S(N)(=O)=O)c3-c3nn[nH]n3)cccc2s1 [Example 148, 3-(2-aminobenzo[d]thiazol-4-yl)-6-((4-aminopiperidin-1-yl)sulfonyl)-2-(2H-tetrazol-5-yl)benzenesulfonamide]	3.125	0.213	0.49	2.00	0.749	12.5	6.25	3.125	1.563	–
Nc1nc2c(-c3ccc(S(=O)(=O)NCC4(N)CC4)c(S(N)(=O)=O)c3-c3nn[nH]n3)cccc2s1 [Example 149, 4-(2-aminobenzo[d]thiazol-4-yl)-N1-((1-aminocyclopropyl)methyl)-3-(2H-tetrazol-5-yl)benzene-1,2-disulfonamide]	3.125	0.216	0.993	1.00	0.739	12.5	6.25	6.25	3.125	–
CN(C)S(=O)(=O)c1ccc(-c2cccc3sc(N)nc23)c(-c2nn[nH]n2)c1S(N)(=O)=O [Example 151, 4-(2-aminobenzo[d]thiazol-4-yl)-N1,N1-dimethyl-3-(2H-tetrazol-5-yl)benzene-1,2-disulfonamide]	50	5.94	2.43	16.00	9.22	12.5	50	6.25	3.125	–
CNS(=O)(=O)c1ccc(-c2cccc3sc(N)nc23)c(-c2nn[nH]n2)c1S(N)(=O)=O [Example 152, 4-(2-aminobezno[d]thiazol-4-yl)-N1-methyl-3-(2H-tetrazol-5-yl)benzene-1,2-disulfonamide]	12.5	0.072	0.264	8.00	0.195	3.125	6.25	3.125	1.563	–
Nc1nc2c(-c3ccc(S(=O)(=O)NCC(=O)O)c(S(N)(=O)=O)c3-c3nn[nH]n3)cccc2s1 [Example 153, ((4-(2-aminobenzo[d]thiazol-4-yl)-2-sulfamoyl-3-(2H-tetrazol-5-yl)phenyl)sulfonyl)glycine]	12.5	0.28	0.704	1.00	–	50	100	25	12.5	1.05
Nc1nc2c(-c3ccc(S(=O)(=O)NC[C@@H](N)C(=O)O)c(S(N)(=O)=O)c3-c3nn[nH]n3)cccc2s1 [Example 154, (R)-2-amino-3-((4-(2-aminobenzo[d]thiazol-4-yl)-2-sulfamoyl-3-(2H-tetrazol-5-yl)phenyl)sulfonamido)propanoic acid]	3.125	0.067	0.155	0.50	0.28	50	25	6.25	6.25	–
